IC50 data for 46 compounds are collected here from patent US8623898B2, “Glycine transporter inhibiting substances” (Taisho Pharmaceutical Co., Ltd., priority 2009, dated 2014).

The experiment deals with T1, human type 1 glycine transporter (GlyT1) (Homo sapiens, UniProt P48067).
T1 construct: Used in the experiment were T98G cells (glioma cells) developing a human type 1 glycine transporter (GlyT1); endogenous in cells; host or cells: T98G human glioma cells
T1 sequence (P48067 1-706): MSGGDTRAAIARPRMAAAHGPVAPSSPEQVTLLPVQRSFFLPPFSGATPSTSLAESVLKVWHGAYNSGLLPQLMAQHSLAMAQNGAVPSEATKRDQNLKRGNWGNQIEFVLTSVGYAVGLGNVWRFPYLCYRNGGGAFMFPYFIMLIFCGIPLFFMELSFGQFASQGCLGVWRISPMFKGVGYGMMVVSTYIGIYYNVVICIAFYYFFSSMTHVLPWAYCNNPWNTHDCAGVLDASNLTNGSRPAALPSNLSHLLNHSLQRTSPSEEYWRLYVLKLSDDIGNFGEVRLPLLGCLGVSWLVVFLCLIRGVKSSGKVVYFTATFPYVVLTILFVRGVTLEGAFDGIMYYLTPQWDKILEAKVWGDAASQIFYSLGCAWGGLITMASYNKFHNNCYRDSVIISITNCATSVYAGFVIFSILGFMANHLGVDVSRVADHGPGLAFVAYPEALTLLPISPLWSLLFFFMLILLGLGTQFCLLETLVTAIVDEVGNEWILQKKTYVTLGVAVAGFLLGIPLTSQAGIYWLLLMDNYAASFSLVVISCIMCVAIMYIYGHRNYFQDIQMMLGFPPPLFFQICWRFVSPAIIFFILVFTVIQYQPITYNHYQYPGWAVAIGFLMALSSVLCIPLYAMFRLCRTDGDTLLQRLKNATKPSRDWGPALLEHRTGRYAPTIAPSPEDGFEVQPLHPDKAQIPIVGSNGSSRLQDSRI
The experiment can be described thus: Glycine uptake inhibition experiment ([3H] glycine uptake in T98G cells). In kind it is cell-based. The following applies: [3H] glycine 250 nM, read-out: IC50 (glycine uptake inhibiting activity). As to the method: A glycine uptake inhibition experiment was conducted in accordance with the method described in Neuron, 8, 927-935, 1992. Used in the experiment were T98G cells (glioma cells) developing a human type 1 glycine transporter (GlyT1). The T98G cells were seeded in a 96-well plate at a density of 2.0×10^4 cells per well and cultured overnight in a CO2 incubator. The test substance was first dissolved in a 100% DMSO solution and then dissolved in a 10 mM HEPES buffer solution (pH 7.4) supplemented with 150 mM sodium chloride, 1 mM calcium chloride, 5 mM potassium chloride, 1 mM magnesium chloride, 10 mM glucose, and 0.2% bovine serum albumin. After removing the cell culture medium, the test substance was subjected to a 10-min pretreatment. Thereafter, the test substance and [^3H] glycine (final concentration: 250 nM) were added to the cells and reaction was performed at room temperature for 15 minutes. After the end of the reaction, the extracellular fluid was aspirated with a manifold to remove the excess marker glycine present outside of the cells; thereafter, the cells were lysed with an aqueous solution of 0.5 M sodium hydroxide. The glycine content in the cells was determined by measuring the radioactivity in the cell lysate with a liquid scintillation counter. With the amount of glycine uptake in the presence of 10 μM ALX5407 being referred to as the nonspecific uptake, the amount of specific uptake was calculated by subtracting the amount of nonspecific uptake from the total amount of uptake in the absence of 10 μM ALX5407. In addition, glycine uptake inhibiting activity (IC50) was calculated from an inhibition curve for the concentration of the test substance ranging from 10^−9 to 10^−5 M.

A word on the IC50: it is the concentration that gives 50% inhibition.

Read-outs that look alike come from different tables or passages of the source.

Take `Cn1cnc(C(=O)N(CCC2CCOCC2)Cc2cccc(OC(F)(F)F)c2)c1` [Compound 1]: the IC50 is under 100 nM. The IC50 (15 min, room temperature) was 19.5 nM.

With `Cn1cc(C(=O)N(Cc2cccc(OC(F)(F)F)c2)C2CCOCC2)nc1Br` [Compound 6], the IC50 is at least 1000 nM.

As for `Cc1nc(C(=O)N(Cc2cccc(OC(F)(F)F)c2)C2CCOCC2)c[nH]1` [Compound 8], the IC50 is at least 1000 nM.

With `Cc1nc(C(=O)N(Cc2cccc(OC(F)(F)F)c2)C2CCOCC2)cn1C` [Compound 9], the IC50 is at least 1000 nM.

As to `CCn1cnc(C(=O)N(Cc2cccc(OC(F)(F)F)c2)C2CCOCC2)c1` [Compound 13], the IC50 is under 100 nM. Moreover, the IC50 (15 min, room temperature) amounted to 3.1 nM.

On to `O=C(c1cn(CC(F)(F)F)cn1)N(Cc1cccc(OC(F)(F)F)c1)C1CCOCC1` [Compound 14], for which the IC50 was at least 1000 nM.

On to `O=C(c1nc[nH]n1)N(Cc1cccc(OC(F)(F)F)c1)C1CCOCC1` [Compound 19], for which the IC50 was at least 1000 nM.

As to `COCCn1cnc(C(=O)N(Cc2cccc(OC(F)(F)F)c2)C2CCOCC2)c1` [Compound 20], the IC50 was at least 1000 nM.

With `COc1cccc(CN(C(=O)c2cn(C)cn2)C2CCOCC2)c1` [Compound 23], the IC50 is under 100 nM.

With `Cn1cnc(C(=O)N(Cc2ccc(F)c(C(F)(F)F)c2)C2CCOCC2)c1` [Compound 25], the 50% inhibitory concentration (IC50) was under 100 nM. In addition, the IC50 (15 min, room temperature) turned out to be 4.1 nM.

Take `O=C(c1nc[nH]n1)N(Cc1cccc(Cl)c1)C1CCOCC1` [Compound 28]: the 50% inhibitory concentration (IC50) is at least 1000 nM.

On to `O=C(c1nc[nH]n1)N(Cc1ccc(F)c(Cl)c1)C1CCOCC1` [Compound 29], for which the half-inhibitory concentration (IC50) was at least 1000 nM.

`O=C(c1nc[nH]n1)N(Cc1ccc(F)c(C(F)(F)F)c1)C1CCOCC1` [Compound 30]: the IC50 was at least 1000 nM.

Regarding `CCn1cnc(C(=O)N(Cc2cccc(OC(F)(F)F)c2)C2CCOCC2)n1` [Compound 31], the IC50 was under 100 nM. In addition, the IC50 (15 min, room temperature) stood at 10.6 nM.

As for `Cn1cnc(C(=O)N(CCOc2ccc(Cl)cc2)C2CCOCC2)c1` [Compound 36], the IC50 was under 100 nM.

Regarding `Cn1cnc(C(=O)N(CCOc2ccc(Cl)c(Cl)c2)C2CCOCC2)c1` [Compound 39], the IC50 is under 100 nM.

Consider `Cn1cnc(C(=O)N(Cc2cc(F)cc(C(F)(F)F)c2)C2CCOCC2)c1` [Compound 42], for which the IC50 was under 100 nM. In addition, for the setting “15 min, room temperature”, the 50% inhibitory concentration (IC50) is 26.9 nM.

For `Cn1cnc(C(=O)N(Cc2ccc(-c3ccccc3)cc2)C2CCOCC2)c1` [Compound 44], the 50% inhibitory concentration (IC50) is at least 1000 nM.

As for `CCn1cnc(C(=O)N(Cc2ccc(F)c(C(F)(F)F)c2)C2CCOCC2)n1` [Compound 45], the IC50 was under 100 nM. Where the note is “15 min, room temperature”, the IC50 was 32.6 nM.

Turning to `Cn1cnc(C(=O)N(CCc2ccccc2Cl)C2CCOCC2)n1` [Compound 47], the IC50 was at least 1000 nM.

`Cn1cnc(C(=O)N(Cc2ccc(OC(F)(F)F)cc2)C2CCOCC2)n1` [Compound 52]: the IC50 is at least 1000 nM.

With `Cn1cnc(C(=O)N(Cc2cccc(I)c2)C2CCOCC2)n1` [Compound 53], the IC50 was under 100 nM. The IC50 (15 min, room temperature) was found to be 38.2 nM.

As to `Cn1cnc(C(=O)N(Cc2ccc(F)c(Br)c2)C2CCOCC2)n1` [Compound 57], the IC50 was under 100 nM. Besides, the half-inhibitory concentration (IC50) (15 min, room temperature) is 45.9 nM.

For the compound `Cn1cnc(C(=O)N(Cc2cc(OC(F)(F)F)ccc2F)C2CCOCC2)n1` [Compound 63], the IC50 is at least 1000 nM.

With `Cn1cnc(C(=O)N(Cc2cccc(OC(F)F)c2)C2CCOCC2)n1` [Compound 67], the IC50 is under 100 nM. In addition, the IC50 (15 min, room temperature) is 42.2 nM.

As for `Cn1cnc(C(=O)N(Cc2ccc(OC(F)F)c(OC(F)F)c2)C2CCOCC2)n1` [Compound 68], the half-inhibitory concentration (IC50) is at least 1000 nM.

As for `Cn1cnc(C(=O)N(Cc2ccc(Cl)c(OC(F)(F)F)c2)C2CCOCC2)n1` [Compound 69], the IC50 was under 100 nM. The IC50 (15 min, room temperature) came out at 29.8 nM.

As to `Cn1cnc(C(=O)N(Cc2cc(Cl)cc(OC(F)(F)F)c2)C2CCOCC2)n1` [Compound 73], the IC50 is under 100 nM. Moreover, the IC50 (15 min, room temperature) was determined as 18.9 nM.

With `O=C(c1ncn(C(F)F)n1)N(Cc1cccc(OC(F)(F)F)c1)C1CCOCC1` [Compound 75], the IC50 was at least 1000 nM.

Take `COC(=O)c1cccc(-c2cc(CN(C(=O)c3ncn(C)n3)C3CCOCC3)ccc2F)c1` [Compound 77]: the half-maximal inhibitory concentration (IC50) is under 100 nM. Moreover, under “15 min, room temperature”, the IC50 was 10.5 nM.

Regarding `Cn1cnc(C(=O)N(Cc2ccc(F)c(-c3cccc(CO)c3)c2)C2CCOCC2)n1` [Compound 78], the IC50 was under 100 nM.

Regarding `Cn1cnc(C(=O)N(Cc2ccc(F)c(-c3ccccc3F)c2)C2CCOCC2)n1` [Compound 88], the IC50 was under 100 nM. Besides, the IC50 (15 min, room temperature) came to 45.1 nM.

As for `CCCOc1cccc(-c2cc(CN(C(=O)c3ncn(C)n3)C3CCOCC3)ccc2F)c1` [Compound 93], the half-inhibitory concentration (IC50) was under 100 nM. The IC50 (15 min, room temperature) turned out to be 41.8 nM.

For the compound `Cn1cnc(C(=O)N(Cc2ccc(F)c(-c3cccc(CO)c3)c2)C2CCOCC2)c1` [Compound 94], the IC50 was under 100 nM. In addition, under “15 min, room temperature”, the IC50 is 7.6 nM.

As to `Cn1cnc(C(=O)N(Cc2ccc(F)c(-c3cccc(CCC#N)c3)c2)C2CCOCC2)c1` [Compound 101], the half-maximal inhibitory concentration (IC50) is under 100 nM. Further, where the note is “15 min, room temperature”, the IC50 amounted to 41.1 nM.

Consider `Cn1cnc(C(=O)N(Cc2ccc(F)c(Br)c2)C2CCOCC2)c1` [Compound 102], for which the 50% inhibitory concentration (IC50) was under 100 nM. Moreover, the IC50 (15 min, room temperature) worked out at 3.8 nM.

For the compound `Cn1cnc(C(=O)N(Cc2ccc(F)c(-c3ccc(C(F)(F)F)cc3)c2)C2CCOCC2)c1` [Compound 104], the IC50 is under 100 nM. For the same compound, the 50% inhibitory concentration (IC50) (15 min, room temperature) is 27.2 nM.

As for `Cc1ccc(-c2cc(CN(C(=O)c3cn(C)cn3)C3CCOCC3)ccc2F)cc1` [Compound 105], the half-inhibitory concentration (IC50) was under 100 nM. Besides, the IC50 (15 min, room temperature) came out at 16.2 nM.

`COC(=O)C(Cc1cccc(OC(F)(F)F)c1)N(C(=O)c1cn(C)cn1)C1CCOCC1` (stereo not shown) [Compound 107]: the IC50 is under 100 nM. For the same compound, the half-maximal inhibitory concentration (IC50) (15 min, room temperature) is 30 nM.

On to `Cn1cnc(C(=O)N(C2CCOCC2)C(c2ccccc2)c2ccccc2)c1` [Compound 108], for which the IC50 was at least 1000 nM.

With `CC1CC(N(Cc2ccc(F)c(Br)c2)C(=O)c2cn(C)cn2)CC(C)O1` (stereo not shown) [Compound 111], the IC50 was at least 1000 nM.

Consider `Cn1cnc(C(=O)N(Cc2ccc(F)c(-c3ccc(OC(F)(F)F)cc3)c2)C2CCSCC2)c1` [Compound 112], for which the IC50 was under 100 nM. Also, the IC50 (15 min, room temperature) stood at 20.3 nM.

Consider `Cn1cnc(C(=O)N(Cc2cccc(C(F)(F)F)c2)C2CCSCC2)c1` [Compound 113], for which the IC50 is under 100 nM. In addition, where the note is “15 min, room temperature”, the IC50 amounted to 7.1 nM.

On to `Cn1cnc(C(=O)N(Cc2ccc(F)c(-c3ccc(F)cc3)c2)C2CCSCC2)c1` [Compound 114], for which the IC50 is under 100 nM. The concentration for half-maximal inhibition (IC50) (15 min, room temperature) is 16.4 nM.

As to `Cn1cnc(C(=O)N(Cc2cccc(C(F)(F)F)c2)C2CCS(=O)(=O)CC2)c1` [Compound 117], the IC50 is at least 1000 nM.

As for `Cc1cc(CN(C(=O)c2cn(C)cn2)C2CCSCC2)cc(OC(F)(F)F)c1` [Compound 118], the IC50 was under 100 nM. Also, under “15 min, room temperature”, the IC50 amounted to 11.3 nM.
